In ChEMBL document CHEMBL1201862, “PubChem BioAssay data set” (2004):
Values joined by “and” are separate entries in the source; they are usually repeats but may differ in a detail not shown here. Equal entries are not always repeated. Active and inactive are the calls of the source.

Columns and labels:
[1] = target: G-protein coupled receptor 55 (Homo sapiens, UniProt Q9Y2T6); assay: selective activators of receptor GPR55 – imaging, U2OS cells, beta-arrestin-GFP redistribution, primary screen (AID 1961); format: functional
[2] = target: T1, Alkaline phosphatase, tissue-nonspecific isozyme (Homo sapiens, UniProt P05186); assay: potency against alkaline phosphatase TNAP – biochemical, luminescent, dose response, SAR follow-up (AID 1056)
T1 sequence (P05186 whole entry): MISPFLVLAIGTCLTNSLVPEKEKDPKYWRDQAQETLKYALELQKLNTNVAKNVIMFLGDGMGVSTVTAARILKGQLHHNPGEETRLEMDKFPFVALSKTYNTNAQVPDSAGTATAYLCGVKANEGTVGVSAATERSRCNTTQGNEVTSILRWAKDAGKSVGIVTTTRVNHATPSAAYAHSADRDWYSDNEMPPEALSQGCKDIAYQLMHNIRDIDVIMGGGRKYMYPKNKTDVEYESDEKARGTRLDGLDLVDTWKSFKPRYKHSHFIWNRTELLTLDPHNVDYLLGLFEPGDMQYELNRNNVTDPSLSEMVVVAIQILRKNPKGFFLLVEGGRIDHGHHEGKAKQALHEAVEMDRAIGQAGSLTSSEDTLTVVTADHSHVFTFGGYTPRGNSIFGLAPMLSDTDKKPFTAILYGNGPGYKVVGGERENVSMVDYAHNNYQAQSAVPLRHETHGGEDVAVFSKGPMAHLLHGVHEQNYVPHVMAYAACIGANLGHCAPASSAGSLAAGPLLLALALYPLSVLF

[3] = target: Alkaline phosphatase, placental type (Homo sapiens, UniProt P05187); assay: human placental alkaline phosphatase inhibition – biochemical, luminescence, confirmation (AID 1512); format: functional
[4] = target: T2, Hexokinase (Trypanosoma brucei, UniProt Q38C41); assay: Confirmation assay for inhibitors of Trypanosoma brucei hexokinase 1-Analogue-first series. [Related pubchem assays (depositor defined):AID1430, AID1632, AID2516, AID2560, AID2579, AID2600, AID449725, AID492951]; format: functional
T2 sequence (Q38C41 whole entry): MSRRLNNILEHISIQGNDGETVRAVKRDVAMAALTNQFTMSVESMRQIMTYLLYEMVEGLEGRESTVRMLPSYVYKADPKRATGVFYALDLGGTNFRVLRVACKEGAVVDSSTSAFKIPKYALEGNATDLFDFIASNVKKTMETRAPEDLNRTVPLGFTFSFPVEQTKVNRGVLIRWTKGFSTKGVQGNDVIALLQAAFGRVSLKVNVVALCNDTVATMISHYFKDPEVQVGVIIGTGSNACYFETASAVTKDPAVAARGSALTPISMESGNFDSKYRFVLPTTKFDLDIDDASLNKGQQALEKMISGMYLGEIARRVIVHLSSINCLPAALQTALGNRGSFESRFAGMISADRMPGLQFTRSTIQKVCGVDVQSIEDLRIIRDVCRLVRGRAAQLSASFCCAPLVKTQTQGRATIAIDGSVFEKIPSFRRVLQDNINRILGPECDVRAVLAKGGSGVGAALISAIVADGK

[5] = target: T3, SUMO-activating enzyme (Homo sapiens, UniProt Q9UBT2); assay: blockers of UBC9-mediated SUMO conjugation – biochemical, AlphaScreen, SUMOylation inhibitor project, confirmation (AID 2018); format: functional
[6] = target: T3, SUMO-activating enzyme; assay: blockers of SAE1/SAE2–UBC9 SUMO transfer – biochemical, HTRF, uHTS, primary screen (AID 2006); format: protein-complex assay
[7] = target: T4, DNA dC->dU-editing enzyme APOBEC-3A (Homo sapiens, UniProt P31941); assay: Dose Response confirmation of small molecule APOBEC3A DNA Deaminase Inhibitors via a fluorescence-based single-stranded DNA deaminase assay. [Related pubchem assays (depositor defined):AID493011, AID493024]; format: functional
[8] = target: T5, DNA dC->dU-editing enzyme APOBEC-3G (Homo sapiens, UniProt Q9HC16); format: functional
[9] = target: T5, DNA dC->dU-editing enzyme APOBEC-3G; assay: Dose Response confirmation of small molecule APOBEC3G DNA Deaminase Inhibitors via a fluorescence-based single-stranded DNA deaminase assay. [Related pubchem assays (depositor defined):AID493012, AID493028]; format: functional
[10] = target: T4, DNA dC->dU-editing enzyme APOBEC-3A; assay: A3A deaminase inhibition for selectivity – biochemical, dose response (AID 504722); format: functional
[11] = target: Glyceraldehyde-3-phosphate dehydrogenase (Homo sapiens, UniProt P04406)
[12] = target: T6, Aminopeptidase N (Plasmodium falciparum FcB1/Columbia, UniProt O96935); assay: malaria alanyl aminopeptidase activity blockers – biochemical, fluorogenic H-Leu-NHMec substrate, 1536-well (AID 1445); set-up: species or system Plasmodium falciparum 3D7, 3D7
T6 sequence (O96935 whole entry): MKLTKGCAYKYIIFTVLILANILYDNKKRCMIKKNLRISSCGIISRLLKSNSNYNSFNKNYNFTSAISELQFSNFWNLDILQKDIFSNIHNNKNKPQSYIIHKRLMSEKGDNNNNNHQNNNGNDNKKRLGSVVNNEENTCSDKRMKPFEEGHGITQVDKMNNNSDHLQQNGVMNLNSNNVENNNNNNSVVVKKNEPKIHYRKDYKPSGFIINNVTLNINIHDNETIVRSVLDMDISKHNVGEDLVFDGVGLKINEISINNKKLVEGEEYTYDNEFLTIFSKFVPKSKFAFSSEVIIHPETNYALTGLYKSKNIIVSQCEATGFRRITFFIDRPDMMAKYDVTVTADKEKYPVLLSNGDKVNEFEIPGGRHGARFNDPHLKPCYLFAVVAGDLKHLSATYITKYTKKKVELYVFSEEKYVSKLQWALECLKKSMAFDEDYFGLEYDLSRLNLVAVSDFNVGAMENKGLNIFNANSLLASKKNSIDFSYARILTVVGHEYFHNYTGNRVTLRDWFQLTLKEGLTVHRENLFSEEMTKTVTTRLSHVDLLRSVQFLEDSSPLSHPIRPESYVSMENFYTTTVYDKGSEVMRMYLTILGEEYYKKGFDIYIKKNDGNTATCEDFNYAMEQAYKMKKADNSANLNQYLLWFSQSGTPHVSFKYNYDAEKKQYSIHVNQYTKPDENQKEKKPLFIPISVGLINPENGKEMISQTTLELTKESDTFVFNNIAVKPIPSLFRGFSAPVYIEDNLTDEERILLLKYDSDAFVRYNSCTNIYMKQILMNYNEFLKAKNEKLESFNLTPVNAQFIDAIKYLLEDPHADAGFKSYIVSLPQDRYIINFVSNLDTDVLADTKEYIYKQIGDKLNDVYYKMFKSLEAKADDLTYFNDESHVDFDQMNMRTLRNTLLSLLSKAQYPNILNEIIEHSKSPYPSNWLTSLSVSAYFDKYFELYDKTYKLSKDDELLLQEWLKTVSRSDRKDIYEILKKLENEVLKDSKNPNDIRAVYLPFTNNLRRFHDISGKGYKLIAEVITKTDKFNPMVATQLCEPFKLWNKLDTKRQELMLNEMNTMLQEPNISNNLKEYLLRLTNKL

[13] = target: Large T antigen (Simian virus 40, UniProt P03070); format: functional, Betapolyomavirus macacae;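 further: Confirmatory-stage PubChem screen for compounds that inhibit SV40 T antigen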
[14] = target: T7, RNA-binding protein pos-1 (Caenorhabditis elegans, UniProt G5EF15); assay: disruptors of C. elegans POS-1 RNA interaction – biochemical, fluorescence polarization, dose response (AID 1964);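 further: purified POS-1 fused to maltose binding protein made in E. coli; potency of compounds blocking POS-1 binding to fluorescent RNA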
T7 sequence (G5EF15 whole entry): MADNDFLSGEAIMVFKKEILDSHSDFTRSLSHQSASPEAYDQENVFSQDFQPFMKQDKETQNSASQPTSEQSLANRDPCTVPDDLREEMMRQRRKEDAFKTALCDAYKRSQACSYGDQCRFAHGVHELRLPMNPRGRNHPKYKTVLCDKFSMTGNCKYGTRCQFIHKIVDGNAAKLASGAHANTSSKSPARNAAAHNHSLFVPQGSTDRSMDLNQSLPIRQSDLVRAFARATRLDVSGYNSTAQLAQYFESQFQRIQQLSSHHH

[15] = target: Genome polyprotein (dengue virus type 2, UniProt P29990); assay: flavivirus cap methylation enzyme inhibition – biochemical, confirmation dose response, primary screen (AID 588689); format: functional
[16] = target: Induced myeloid leukemia cell differentiation protein Mcl-1 (Homo sapiens, UniProt Q07820); format: functional
[17] = target: T8, Zinc finger protein mex-5 (Caenorhabditis elegans, UniProt Q9XUB2); assay: potency of MEX-5 RNA-binding blockers – biochemical, C. elegans, fluorescence polarization, dose response (AID 1960)
T8 sequence (Q9XUB2 whole entry): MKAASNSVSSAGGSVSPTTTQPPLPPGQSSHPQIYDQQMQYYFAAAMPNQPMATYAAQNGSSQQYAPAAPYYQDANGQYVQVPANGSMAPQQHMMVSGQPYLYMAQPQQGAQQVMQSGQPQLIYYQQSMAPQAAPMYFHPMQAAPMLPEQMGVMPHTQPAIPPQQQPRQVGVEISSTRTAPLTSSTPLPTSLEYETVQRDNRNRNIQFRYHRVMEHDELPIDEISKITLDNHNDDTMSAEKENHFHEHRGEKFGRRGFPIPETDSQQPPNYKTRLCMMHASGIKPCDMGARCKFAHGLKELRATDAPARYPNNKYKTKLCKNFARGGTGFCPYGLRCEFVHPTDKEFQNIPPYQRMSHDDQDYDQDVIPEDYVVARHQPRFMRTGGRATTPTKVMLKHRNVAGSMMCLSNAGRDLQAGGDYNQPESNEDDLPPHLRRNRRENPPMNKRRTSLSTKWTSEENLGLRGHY

[18] = target: T9, Leucine aminopeptidase (Plasmodium falciparum 3D7, UniProt Q8IL11); assay: P. falciparum M17LAP inhibitors, primary screen, biochemical, fluorogenic H-Leu-NHMec substrate, 1536-well (AID 1619); format: functional
T9 sequence (Q8IL11 whole entry): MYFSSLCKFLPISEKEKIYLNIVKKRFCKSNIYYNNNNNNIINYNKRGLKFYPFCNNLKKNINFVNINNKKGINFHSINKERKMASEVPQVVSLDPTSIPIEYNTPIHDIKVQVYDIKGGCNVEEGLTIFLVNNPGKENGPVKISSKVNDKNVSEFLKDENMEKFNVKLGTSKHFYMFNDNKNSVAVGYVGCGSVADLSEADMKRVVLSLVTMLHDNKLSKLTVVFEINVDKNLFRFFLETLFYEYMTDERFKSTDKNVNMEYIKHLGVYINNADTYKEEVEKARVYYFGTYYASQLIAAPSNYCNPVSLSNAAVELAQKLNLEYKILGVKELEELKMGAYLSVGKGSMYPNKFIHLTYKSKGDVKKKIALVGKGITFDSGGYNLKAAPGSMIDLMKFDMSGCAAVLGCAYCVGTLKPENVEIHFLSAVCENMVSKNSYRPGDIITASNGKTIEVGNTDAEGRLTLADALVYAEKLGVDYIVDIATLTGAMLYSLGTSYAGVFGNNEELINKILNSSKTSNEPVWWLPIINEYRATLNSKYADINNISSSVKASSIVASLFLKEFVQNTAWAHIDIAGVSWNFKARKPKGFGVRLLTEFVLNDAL

[19] = target: Nonstructural protein 1 (Influenza A virus, UniProt Q194T2); format: functional, Influenza A virus (A/California/07/2009(H1N1))
[20] = target: T10, Carboxy-terminal domain RNA polymerase II polypeptide A small phosphatase 1 (Homo sapiens, UniProt Q9GZU7); assay: CTDSP1 inhibitors, concentration-response, biochemical, absorbance readout, ultra-high-throughput screen actives (AID 540297); format: functional
T10 sequence (Q9GZU7 whole entry): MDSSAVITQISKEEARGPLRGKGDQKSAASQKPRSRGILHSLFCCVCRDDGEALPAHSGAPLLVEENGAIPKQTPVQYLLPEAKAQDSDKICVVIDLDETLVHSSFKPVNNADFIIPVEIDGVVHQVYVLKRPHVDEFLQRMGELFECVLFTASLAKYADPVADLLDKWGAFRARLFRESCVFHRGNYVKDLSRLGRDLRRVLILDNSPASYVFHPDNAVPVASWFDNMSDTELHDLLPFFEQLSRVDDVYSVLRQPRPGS

## COc1ccc(-c2cc(C(=O)Nc3cc(S(=O)(=O)N4CCOCC4)ccc3N3CCOCC3)c3ccccc3n2)cc1
[1]
  EC50: 1.68 µM (active)

## CC(C)(C)OC(=O)NC1(C(Cl)(Cl)Cl)Oc2ccccc2O1
[2]
  IC50: > 100 µM (inactive)
[3]
  IC50: > 100 µM (inactive)

## COc1ccc(C(=O)Nc2ccccc2-c2nn[nH]n2)cc1
[4]
  IC50: > 25 µM (inactive)

## COc1ccc(C)c2sc(NC(=O)c3cccc(N4C(=O)CCC4=O)c3)nc12
[5]
  IC50: 9.99 µM (active)
[6]
  IC50: 6.1 µM (active)

## Cc1ccc(C)c(NC(=O)Cn2cc(C(=O)C3CC3)c3ccccc32)c1
[7]
  IC50: 6.88 µM (active)
[8]
  IC50: 6.11 µM (active)

## Sc1nc(-c2ccccc2)cn1/N=C/c1cccnc1
[9]
  IC50: 4.77 µM (active)
[10]
  IC50: > 100 µM (inactive)

## O=C1CC(c2ccccc2)Cc2[nH]ncc21 (stereo not drawn)
[2]
  IC50: > 100 µM (inactive)
[11]
  IC50: > 100 µM (not active)
[3]
  IC50: > 100 µM (inactive)

## O=C(O)c1ccccc1NS(=O)(=O)c1ccc(NNC(=S)Nc2ccc(OC(F)F)cc2)c([N+](=O)[O-])c1
[12]
  IC50: 17.3 µM (active)
[13]
  IC50: 29.8 µM (active)
[14]
  EC50: 7.38 µM (active)
[15]
  IC50: 18.5 µM (active)
[16]
  IC50: 2.95 µM (active)
[17]
  EC50: 5.57 µM (active)
[18]
  IC50: 5.33 µM (active)
[19]
  IC50: 13 µM (active)

## CCc1nc(CNC(=O)c2cc(OC)c(OC)c(OC)c2)no1
[7]
  IC50: 2.24 µM (active)
[8]
  IC50: 3.11 µM (active)

## COc1ccc(C(=O)Nc2cc(Cl)ccc2C(=O)O)cc1OC
[4]
  IC50: 15.5 µM (active)

## Cc1cc(Br)ccc1NC(=O)CN(C)C(=O)Cn1c(=O)cnc2ccccc21
[7]
  IC50: 5.76 µM (active)
[20]
  IC50: 7.57 µM (active)
[8]
  IC50: 6.85 µM (active)

## Cc1ccc(-c2nc3ccccc3[nH]2)cc1NC(=S)NC(=O)c1ccccc1Br
[1]
  EC50: 2.9 µM (active)

## COC(=O)c1cc(-c2ccc(Cl)cc2Cl)n[nH]1
[2]
  IC50: 264 nM (active) and 315 nM (active)
[11]
  IC50: > 100 µM (not active)
[3]
  IC50: > 100 µM (inactive)

## COc1cccc(C(=O)NCc2nnc(S)n2-c2cccc(C)c2)c1
[9]
  IC50: 12.8 µM (active)
[10]
  IC50: > 100 µM (inactive)
